Test results published in patent US20070191393A1, “Macrocyclic anilinopyrimidines with substituted sulphoximine as selective inhibitors of cell cycle kinases” (priority 2006, published 2007).
pIC50: −log10 of the molar value.

Legend:
CDK1/CycB = target: T1, CDK1/CycB (Homo sapiens, UniProt P06493); assay: CDK1/CycB kinase assay; assay type: biochemical; settings: 0.5 μM ATP, 22° C., 10 min
T1 construct: GST; purchased ProQinase GmbH, Freiburg; host or cells: baculovirus-infected Sf9 insect cells
T1 sequence (P06493 whole entry): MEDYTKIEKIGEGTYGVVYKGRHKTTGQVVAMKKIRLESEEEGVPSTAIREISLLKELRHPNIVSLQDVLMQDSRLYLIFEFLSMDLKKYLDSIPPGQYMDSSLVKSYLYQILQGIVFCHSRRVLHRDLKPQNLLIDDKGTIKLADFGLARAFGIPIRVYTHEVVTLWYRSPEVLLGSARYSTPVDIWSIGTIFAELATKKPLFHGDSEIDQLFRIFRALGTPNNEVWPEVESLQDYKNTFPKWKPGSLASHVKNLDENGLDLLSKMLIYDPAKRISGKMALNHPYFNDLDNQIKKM
T1 sequence (P14635 whole entry partner): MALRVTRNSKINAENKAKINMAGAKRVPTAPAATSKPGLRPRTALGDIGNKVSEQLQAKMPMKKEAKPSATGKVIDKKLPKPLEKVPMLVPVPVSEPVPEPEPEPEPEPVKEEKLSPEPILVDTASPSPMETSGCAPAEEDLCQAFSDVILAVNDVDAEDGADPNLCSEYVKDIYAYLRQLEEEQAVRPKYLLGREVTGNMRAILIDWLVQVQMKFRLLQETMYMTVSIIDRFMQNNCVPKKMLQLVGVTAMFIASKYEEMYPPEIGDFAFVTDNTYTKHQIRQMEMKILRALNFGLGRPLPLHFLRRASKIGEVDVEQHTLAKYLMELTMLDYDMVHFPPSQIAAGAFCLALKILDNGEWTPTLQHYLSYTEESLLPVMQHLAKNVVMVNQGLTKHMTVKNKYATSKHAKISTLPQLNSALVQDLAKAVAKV
Procedure: Recombinant CDK1- and CycB-GST fusion proteins, purified from baculovirus-infected insect cells (Sf9), were purchased from ProQinase GmbH, Freiburg. The histone IIIS used as kinase substrate can be purchased from Sigma. CDK1/CycB (200 ng/measurement point) was incubated in the presence of various concentrations of test substances (0 μM, and within the range 0.01-100 μM) in assay buffer [50 mM Tris/HCl pH 8.0, 10 mM MgCl2, 0.1 mM Na ortho-vanadate, 1.0 mM dithiothreitol, 0.5 μM ATP, 10 μg/measurement point histone IIIS, 0.2 μCi/measurement point 33P-gamma ATP, 0.05% NP40, 1.25% dimethyl sulphoxide] at 22° C. for 10 min. The reaction was stopped by adding EDTA solution (250 mM, pH 8.0, 15 μl/measurement point).
15 μl of each reaction mixture were loaded onto P30 filter strips (from Wallac), and non-incorporated 33P-ATP was removed by washing the filter strips three times in 0.5% strength phosphoric acid for 10 min each time. After the filter strips had been dried at 70° C. for 1 hour, the filter strips were covered with scintillator strips (MeltiLex™ A, from Wallac) and baked at 90° C. for 1 hour. The amount of incorporated 33P (substrate phosphorylation) was determined by scintillation measurement in a gamma radiation counter (Wallac).

Tie-2 = target: T2, Tie-2 (Homo sapiens, UniProt Q02763); assay: Tie-2 kinase assay; assay type: biochemical; settings: 10 μM ATP, 20 min
T2 construct: made in house; host or cells: Hi5 insect cells
T2 sequence (Q02763 23-1124, species assumed): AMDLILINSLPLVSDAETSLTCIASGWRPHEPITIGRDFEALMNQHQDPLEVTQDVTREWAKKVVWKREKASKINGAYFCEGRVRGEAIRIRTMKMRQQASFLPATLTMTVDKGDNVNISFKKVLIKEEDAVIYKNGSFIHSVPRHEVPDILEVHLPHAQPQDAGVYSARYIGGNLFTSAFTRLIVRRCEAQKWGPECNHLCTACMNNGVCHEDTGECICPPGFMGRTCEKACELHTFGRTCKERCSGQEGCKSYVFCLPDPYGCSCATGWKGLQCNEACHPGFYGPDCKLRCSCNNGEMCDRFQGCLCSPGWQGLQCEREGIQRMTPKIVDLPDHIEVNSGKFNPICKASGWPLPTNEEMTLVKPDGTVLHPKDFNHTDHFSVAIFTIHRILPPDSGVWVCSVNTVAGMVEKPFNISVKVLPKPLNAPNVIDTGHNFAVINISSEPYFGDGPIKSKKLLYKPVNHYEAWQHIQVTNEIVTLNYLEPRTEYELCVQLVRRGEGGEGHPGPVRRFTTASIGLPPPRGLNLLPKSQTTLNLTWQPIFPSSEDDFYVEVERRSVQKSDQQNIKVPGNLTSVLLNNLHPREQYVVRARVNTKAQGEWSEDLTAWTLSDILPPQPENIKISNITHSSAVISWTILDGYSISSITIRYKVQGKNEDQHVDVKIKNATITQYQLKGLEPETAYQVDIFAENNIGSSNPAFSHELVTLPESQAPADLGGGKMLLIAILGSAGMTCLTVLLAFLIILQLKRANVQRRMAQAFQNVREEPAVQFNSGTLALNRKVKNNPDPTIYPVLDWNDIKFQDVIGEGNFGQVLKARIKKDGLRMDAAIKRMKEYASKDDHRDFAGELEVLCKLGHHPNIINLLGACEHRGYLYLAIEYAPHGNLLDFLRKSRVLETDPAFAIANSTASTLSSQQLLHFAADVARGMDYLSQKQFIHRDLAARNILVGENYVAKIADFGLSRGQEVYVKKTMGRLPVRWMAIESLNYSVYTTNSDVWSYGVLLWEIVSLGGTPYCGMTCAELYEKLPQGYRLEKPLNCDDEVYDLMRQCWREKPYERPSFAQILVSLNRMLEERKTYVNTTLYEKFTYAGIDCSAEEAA
Procedure: Recombinant Tie-2 protein was expressed in Hi5 insect cells and then purified. The kinase substrate used was the biotinylated peptide having the amino acid sequence biotin-EPKDDAYPLYSDFG, which was purchased from Biosynthan. Tie-2 [concentration in the mixture 5 ng/μl] was preincubated in the presence of 100 μM ATP in assay buffer [50 mM HEPES pH 7.0, 0.5 mM MgCl2, 1.0 mM dithiothreitol, 0.01% NP40, 1 tablet/2.5 ml complete protease inhibitor (from Roche)] at 22° C. for 20 min. The enzyme reaction [0.5 ng/μl Tie-2 in the test mixture, test volume 5 μl] then took place in the presence of various concentrations of test substances (0 μM, and 10 measurement points within the range 0.001-20 μM in duplicate) in assay buffer with 10 μM ATP, 1.0 μM substrate peptide biotin-EPKDDAYPLYSDFG, 1.0% dimethyl sulphoxide for 20 min. The reaction was stopped by adding 5 μl of an EDTA/detection solution [50 mM HEPES pH 7.5, 89 mM EDTA, 0.28% BSA, 0.2 μM streptavidin-XLent (from CisBio), 2 nM PT66-Eu (from PerkinElmer)]. The fluorescence emission at 620 nm and 665 nm after excitation with light of the wavelength 350 nm was measured in a Rubystar HTRF instrument from BMG Labsystems.
The measured data (ratio of emission 665 divided by emission 620 multiplied by 10 000) were normalized to 0% inhibition (enzyme reaction without inhibitor) and 100% inhibition (all assay components apart from enzyme). The IC50 values were determined by means of a 4-parameter fit using the company's own software.

| SMILES | pIC50 (CDK1/CycB) | pIC50 (Tie-2) |
| --- | --- | --- |
| CCOC(=O)N=S(C)(=O)c1ccc2cc1NCCCCNc1nc(ncc1Br)N2 (racemic) [Example 1, (RS)—S-[1^5-Bromo-2,4,9-triaza-1(2,4)-pyrimidina-3(1,3)-benzenacyclononaphan-3^4-yl]-N-(ethoxycarbonyl)-S-methylsulphoximide] | 6.76 | 5.53 |
| CCOC(=O)N=S(C)(=O)c1ccc2cc1NCCCCNc1nc(ncc1I)N2 (racemic) [Example 4, (RS)—N-(Ethoxycarbonyl)-S-[1^5-iodo-2,4,9-triaza-1(2,4)-pyrimidina-3(1,3)-benzenacyclononaphan-3^4-yl]-S-methylsulphoximide] | 6.93 | – |
| C[Si](C)(C)CCS(=O)(=O)N=S(C)(=O)c1ccc2cc1NCCCCNc1nc(ncc1Br)N2 (racemic) [Example 5, (RS)—S-[1^5-Bromo-2,4,9-triaza-1(2,4)-pyrimidina-3(1,3)-benzenacyclononaphan-3^4-yl]-S-methyl-N-[2-(trimethylsilyl)ethylsulphonyl]sulphoximide] | < 6.00 | – |
| CCNC(=O)N=S(C)(=O)c1ccc2cc1NCCCCNc1nc(ncc1Br)N2 (racemic) [Example 6, (RS)—S-[1^5-Bromo-2,4,9-triaza-1(2,4)-pyrimidina-3(1,3)-benzenacyclononaphan-3^4-yl]-N-(ethylcarbamoyl)-S-methylsulphoximide] | 7.15 | 5.85 |
| CCCS(=O)(=O)N=S(C)(=O)c1ccc2cc1NCCCCNc1nc(ncc1Br)N2 (racemic) [Example 7, (RS)—S-[1^5-Bromo-2,4,9-triaza-1(2,4)-pyrimidina-3(1,3)-benzenacyclononaphan-3^4-yl]-S-methyl-N-(propylsulphonyl)sulphoximide] | 6.34 | 5.77 |
| CCCOC(=O)N=S(C)(=O)c1ccc2cc1OCCCCNc1nc(ncc1Br)N2 (racemic) [Example 8, (RS)—S-[1^5-Bromo-4-oxa-2,9-diaza-1(2,4)-pyrimidina-3(1,3)-benzenacyclononaphan-3^4-yl]-S-methyl-N-(propoxycarbonyl)sulphoximide] | 6.36 | 4.77 |
| C[Si](C)(C)CCS(=O)(=O)N=S(C)(=O)c1ccc2cc1OCCCCNc1nc(ncc1Br)N2 (racemic) [Example 9, (RS)—S-[1^5-Bromo-4-oxa-2,9-diaza-1(2,4)-pyrimidina-3(1,3)-benzenacyclononaphan-3^4-yl]-S-methyl-N-[2-(trimethylsilyl)ethylsulphonyl]sulphoximide] | < 6.00 | < 5.00 |
| CCOC(=O)N=S(C)(=O)c1ccc2cc1NCCCCNc1nc(ncc1Br)N2 (single isomer, unassigned) [Example 2] | 6.98 | – |
| CCOC(=O)N=S(C)(=O)c1ccc2cc1NCCCCNc1nc(ncc1Br)N2 (single isomer, unassigned) [Example 3] | 6.68 | – |
